# Target: T1, TRAF6-UBC13 interaction (Homo sapiens, UniProt Q9Y4K3)
# T1 construct: RING-Zincfinger1 (RZ1) domain (residues 50-159) of TRAF6 wildtype; made in house; host or cells: E. coli BL21 codon plus RIPL
# T1 sequence (Q9Y4K3 50-159): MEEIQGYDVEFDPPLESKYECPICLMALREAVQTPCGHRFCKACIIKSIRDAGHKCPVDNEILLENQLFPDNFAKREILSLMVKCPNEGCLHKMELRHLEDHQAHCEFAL
# Experiment: ALPHAScreen TRAF6WTStrepII-Ubc13FH interaction assay
# Assay type: binding
# Conditions: inhibition of TRAF6-UBC13 interaction
# Text: In order to identify small molecules that specifically target the RZ1 domain of TRAF6 and thereby prevent its binding to Ubc13, the ALPHAScreen technology (PerkinElmer) was chosen to detect TRAF6WTStrepII-Ubc13FH interaction in High-Throughput-Screenings as well as Structure Activity Relationship (SAR) analysis.
# For performance of an automated ALPHAScreen assay, all following components were pre-diluted in ALPHAScreen buffer (1×PBS, 0.5% BSA, 0.01% Tween-20). First, the TRAF6 protein (end concentration 100 nM, 30 μL volume) was added to 384-well-opti-plates involving the MultiFlo dispensing system (BioTek) followed by transfer of the compounds via the Sciclone G3 transfer station (PerkinElmer). After addition of Ubc13FH (end concentration 75 nM, 10 μL volume) with the MultiFlo system and incubation for one hour at room temperature, both beads (Strep-Tactin Alpha Donor beads and Nickel-Chelate acceptor beads; end concentrations 4 μg each, 10 μL volume each) were mixed and added using the MultiFlo system in subdued light. Read-out of the plates occurred after another hour of incubation at room temperature. Statistical parameters including the coefficient of variation, Z′ factor and signal window were calculated to determine the quality of the HTS campaign. To evaluate the efficacy of the compounds, ALPHAScreen units of compound-treated samples were referred to DMSO control treated samples. Thereby, the TRAF6D57K mutant served as the control for minimum signal and was included on every plate of the screening. Compounds that inhibited TRAF6WTStrepII-Ubc13FH by more than 25% were considered as actives. After elimination of ALPHAScreen frequent hitter compounds and His-tag frequent hitters (Schorpp, K., I. Rothenaigner, E. Salmina, et al., Identification of Small-Molecule Frequent Hitters from AlphaScreen High-Throughput Screens. J Biomol Screen, 2014. 19(5): p. 715-26), 178 compounds were defined as primary hits and were subsequently tested in five-point serial dilution assays (2.5-40 μM) in TRAF6WTStrepII-Ubc13FH ALPHAScreen experiments. Only compounds with dose-dependent effects on TRAF6WTStrepII-Ubc13FH (n=27) were taken for further research. For analog testing, all compounds were analyzed in ten-point titration (0.2-100 μM) in TRAF6WTStrepII-Ubc13FH ALPHAScreen experiments. In parallel, the compounds were tested in the ALPHAScreen TruHits Kit (PerkinElmer) to rule out unspecific interference with the ALPHAScreen technology.
row,SMILES,IC50 [µM]
1,"COc1ccc(N2CCN(C(=O)CCc3c(C)nn(-c4ccc5nncn5n4)c3C)CC2)cc1 [Compound 9, 3-(1-([1,2,4]triazolo[4,3-b]pyridazin-6-yl)-3,5-dimethyl-1H-pyrazol-4-yl)-1-(4-(4-methoxyphenyl)piperazin-1-yl)propan-1-one]",≤ 10
2,"Cc1nn(-c2ccc3nncn3n2)c(C)c1CCC(=O)N1CCN(c2ccccc2)CC1 [Compound 10, 3-(1-([1,2,4]triazolo[4,3-b]pyridazin-6-yl)-3,5-dimethyl-1H-pyrazol-4-yl)-1-(4-phenylpiperazin-1-yl)propan-1-one]",≤ 10
3,"Cc1nn(-c2ccc3nnc(C)n3n2)c(C)c1CCC(=O)N1CCN(Cc2cccc(Cl)c2)CC1 [Compound 11, 1-(4-(3-chlorobenzyl)piperazin-1-yl)-3-(3,5-dimethyl-1-(3-methyl-[1,2,4]triazolo[4,3-b]pyridazin-6-yl)-1H-pyrazol-4-yl)propan-1-one]",≤ 10
4,"Cc1nn(-c2ccc3nncn3n2)c(C)c1CCC(=O)N1CCN(c2ccccn2)CC1 [Compound 12, 3-(1-([1,2,4]triazolo[4,3-b]pyridazin-6-yl)-3,5-dimethyl-1H-pyrazol-4-yl)-1-(4-(pyridin-2-yl)piperazin-1-yl)propan-1-one]",≤ 10
5,"Cc1ccc(CNC(=O)CCc2c(C)nn(-c3ccc4nnc(C)n4n3)c2C)o1 [Compound 13, 3-(3,5-dimethyl-1-(3-methyl-[1,2,4]triazolo[4,3-b]pyridazin-6-yl)-1H-pyrazol-4-yl)-N-((5-methylfuran-2-yl)methyl)propanamide]",≤ 10
6,"Cc1nn(-c2ccc3nnc(C)n3n2)c(C)c1CCC(=O)N1CCN(c2ccccc2F)CC1 [Compound 14, 3-(3,5-dimethyl-1-(3-methyl-[1,2,4]triazolo[4,3-b]pyridazin-6-yl)-1H-pyrazol-4-yl)-1-(4-(2-fluorophenyl)piperazin-1-yl)propan-1-one]",≤ 30

# The remaining lines, values ahead:
row,IC50 [µM],SMILES
1,≤ 3,"Cc1nn(-c2ccc3nnc(C)n3n2)c(C)c1CCC(=O)N1CCN(c2ccccc2)CC1 [Compound 1, 3-(3,5-dimethyl-1-(3-methyl-[1,2,4]triazolo[4,3-b]pyridazin-6-yl)-1H-pyrazol-4-yl)-1-(4-phenylpiperazin-1-yl)propan-1-one]"
2,≤ 3,"Cc1nn(-c2ccc3nnc(C)n3n2)c(C)c1CCC(=O)N1CCN(c2ccccn2)CC1 [Compound 2, 3-(3,5-dimethyl-1-(3-methyl-[1,2,4]triazolo[4,3-b]pyridazin-6-yl)-1H-pyrazol-4-yl)-1-(4-(pyridin-2-yl)piperazin-1-yl)propan-1-one]"
3,≤ 3,"Cc1nn(-c2ccc3nnc(C)n3n2)c(C)c1CCC(=O)N1CCN(c2ccc(F)cc2)CC1 [Compound 4, 3-(3,5-dimethyl-1-(3-methyl-[1,2,4]triazolo[4,3-b]pyridazin-6-yl)-1H-pyrazol-4-yl)-1-(4-(4-fluorophenyl)piperazin-1-yl)propan-1-one]"
4,≤ 10,"Cc1nn(-c2ccc3nncn3n2)c(C)c1CCC(=O)N1CCN(c2ccc(F)cc2)CC1 [Compound 5, 3-(1-([1,2,4]triazolo[4,3-b]pyridazin-6-yl)-3,5-dimethyl-1H-pyrazol-4-yl)-1-(4-(4-fluorophenyl)piperazin-1-yl)propan-1-one]"
5,≤ 10,"Cc1nn(-c2ccc3nnc(C)n3n2)c(C)c1CCC(=O)N1CCCC1 [Compound 6, 3-(3,5-dimethyl-1-(3-methyl-[1,2,4]triazolo[4,3-b]pyridazin-6-yl)-1H-pyrazol-4-yl)-1-(pyrrolidin-1-yl)propan-1-one]"
6,≤ 10,"COc1ccc(N2CCN(C(=O)CCc3c(C)nn(-c4ccc5nnc(C)n5n4)c3C)CC2)cc1 [Compound 7, 3-(3,5-dimethyl-1-(3-methyl-[1,2,4]triazolo[4,3-b]pyridazin-6-yl)-1H-pyrazol-4-yl)-1-(4-(4-methoxyphenyl)piperazin-1-yl)propan-1-one]"
7,≤ 10,"COc1cccc(N2CCN(C(=O)CCc3c(C)nn(-c4ccc5nncn5n4)c3C)CC2)c1 [Compound 8, 3-(1-([1,2,4]triazolo[4,3-b]pyridazin-6-yl)-3,5-dimethyl-1H-pyrazol-4-yl)-1-(4-(3-methoxyphenyl)piperazin-1-yl)propan-1-one]"
